From patent US20050031670A1, “Weight reduction or weight controlling composition” (priority 2001, published 2005)
Counter-ions that a name gives are not always drawn.

Key:
Obese patients (BMI≧30) [1] = assay: Weight loss in obese patients given bupropion plus low calorie nutritional beverage (Example 3, invention); type: in vivo, human; settings: 600 Kcal deficit diet, end of 6 months
Protocol: Example 3 (Invention): Obese patients (BMI≧30) were given 300 mg (N=110) or 400 mg (N=105) of bupropion and a low calorie, nutritional beverage (Slim Fast™, 11.5 oz.) for two meals per day for 6 months to achieve a 600 Kcal deficit diet. That is, each patient was given 150 or 200 mg of bupropion HCL sustained release, respectively, in a nutritional beverage (a food component of the invention) twice a day. At the end of the end of 6 months, the average weight loss was 7.2 kg and 10.1 kg for the 300 mg and 400 mg groups, respectively.

Obese patients (BMI≧30) [2] = assay: Weight loss in obese patients given bupropion without food component or dietary intervention (Example 2, comparative); type: in vivo, human; settings: 300 mg bupropion (150 mg twice a day), no food component nor dietary counseling
Protocol: Example 2 (Comparative): An analysis was conducted of obese patients (BMI≧30) who were given 300 mg of bupropion (150 mg twice a day) in the absence of the food component of the invention nor any other dietary counseling or intervention. Weight loss was negligible, the average weight loss per patient in the 300 mg study was 2.4 Kg after 12 months.

Row | Structure (SMILES) | average weight loss (Obese patients (BMI≧30) [1]; 300 mg group (150 mg twice a day) in Slim Fast 11.5 oz for two meals per day) | average weight loss (Obese patients (BMI≧30) [1]; 400 mg group (200 mg twice a day) in Slim Fast 11.5 oz for two meals per day) | Weight loss (in words) (Obese patients (BMI≧30) [2]) | average weight loss per patient (Obese patients (BMI≧30) [2]; after 12 months)
1 | CC(NC(C)(C)C)C(=O)c1cccc(Cl)c1 (single isomer, unassigned; (+)) [bupropion HCL sustained release, (+)-2-(tert-butylamino)-3′-chloropropiophenome hydrochloride] | 7.2 kg | 10.1 kg | – | –
2 | CC(NC(C)(C)C)C(=O)c1cccc(Cl)c1 (racemic) [bupropion, (±)-1-(3-chlorophenyl)-2-[(1,1-dimethyl)amino]-1-propanone hydrochloride] | – | – | negligible | 2.4 kg
